Data on 25 compounds can be found in ChEMBL document CHEMBL5724709, “EUbOPEN Chemogenomics Library - IncuCyte” (2024).

Holding throughout (assay type): toxicity, cell-based
Data set [1] concerns Fibroblast. As to the kind of experiment: Incucyte cell viability with human fibroblast. The conditions noted are these: 24 h, 10 µM, compound concentration 10 uM.
Data set [2] relates to HEK-293T. Briefly: Incucyte cell viability with HEK293T. The conditions noted are these: human, 24 h, 10 µM, compound concentration 10 uM.
In data set [3] the test system is U2OS. Briefly: Incucyte cell viability with U2OS. The conditions noted are these: human, 24 h, 10 µM, compound concentration 10 uM.

Each structure is given as a SMILES string. Square brackets hold non-standard residues; d marks the D form. Peptide text beside a SMILES is read from it. * marks the point of attachment. Benzoyl(4-OPh) = O=C(c1ccc(Oc2ccccc2)cc1)*; Benzoyl(4-tBu) = CC(C)(C)c1ccc(C(=O)*)cc1; Lys(Et2) = CCN(CC)CCCC[C@H](N)C(=O)O; d(aIle) = CC[C@H](C)[C@@H](N)C(=O)O; Gly(cPent) = N[C@H](C(=O)O)C1CCCC1; Nle = CCCC[C@H](N)C(=O)O; Cbz = O=C(OCc1ccccc1)*; NH(propargyl) = C#CCN*; Boc = CC(C)(C)OC(=O)*; CH2Cl = ClC*; CH2F = FC*
Note: unitless GR value; below 1 slowed growth and below 0 cell loss.

Turning to `CSCC[C@H](NC(=O)[C@H](CC(=O)O)NC(C)=O)C(=O)N[C@@H](CCC(N)=O)C(=O)N[C@H](C=O)CC(=O)O.O=C(O)C(F)(F)F` (Ac-DMQD-aldehyde), the “Growth Rate” value in data set [1] (replicate number 1) was found to be 0.25; in data set [1] (replicate number 2) it was 1; in data set [2] (replicate number 1), 1; in data set [2] (replicate number 2) it was 0.97; in data set [3] (replicate number 1) it was 1.
As to `CC(=O)N[C@@H](Cc1ccccc1)C(=O)N[C@@H](CC(C)C)C(=O)N[C@H](C(=O)N[C@@H](CC(=O)O)C(=O)CCl)[C@@H](C)O` (Ac-FLTD-CH2Cl), the “Growth Rate” value in data set [1] (replicate number 1) stood at 0.51; in data set [1] (replicate number 2), 1; in data set [2] (replicate number 1), 0.96; in data set [2] (replicate number 2), 0.99; in data set [3] (replicate number 1), 0.81; in data set [3] (replicate number 2) it was 0.66.
Consider `CC[C@H](C)[C@H](NC(C)=O)C(=O)N[C@@H](CCC(=O)O)C(=O)N[C@H](C(=O)N[C@H](C=O)CC(=O)O)[C@@H](C)O.O=C(O)C(F)(F)F` (Ac-IETD-aldehyde), for which the “Growth Rate” value stood at 0.25 in data set [1] (replicate number 1); 0.42 in data set [1] (replicate number 2); 0.57 in data set [2] (replicate number 1); 1 in data set [2] (replicate number 2); 1 in data set [3] (replicate number 1).
As for `CC(=O)N[C@@H](CC(C)C)C(=O)N[C@@H](CCC(=O)O)C(=O)N[C@@H](Cc1cnc[nH]1)C(=O)N[C@@H](CC(=O)O)C(=O)CCl.O=C(O)C(F)(F)F` (Ac-LEHD-CH2Cl), the “Growth Rate” value in data set [1] (replicate number 1) worked out at 0.44; in data set [1] (replicate number 2), 1; in data set [2] (replicate number 1), 0.35; in data set [2] (replicate number 2), 0.95; in data set [3] (replicate number 1) it was 0.62; in data set [3] (replicate number 2), 1.
Turning to `CC(=O)N[C@@H](CC(C)C)C(=O)N[C@@H](CCC(=O)O)C(=O)N[C@@H](Cc1cnc[nH]1)C(=O)N[C@H](C=O)CC(=O)O.O=C(O)C(F)(F)F` (Ac-LEHD-aldehyde), the “Growth Rate” value in data set [1] (replicate number 1) worked out at 1; in data set [1] (replicate number 2), 0.49; in data set [2] (replicate number 1), 0.81; in data set [2] (replicate number 2) it was 0.98; in data set [3] (replicate number 1) it was 1; in data set [3] (replicate number 2) it was 0.89.
Take `CC(=O)N[C@@H](CC(C)C)C(=O)N[C@@H](CCC(=O)O)C(=O)N[C@H](C(=O)N[C@H](C=O)CC(=O)O)C(C)C` (Ac-LEVD-aldehyde): the “Growth Rate” value in data set [1] (replicate number 1) stood at 0.82; in data set [1] (replicate number 2), 0.19; in data set [2] (replicate number 1), 0.89; in data set [2] (replicate number 2), 0.82; in data set [3] (replicate number 1) it was 0.75; in data set [3] (replicate number 2) it was 1.
With `CCCC[C@@H](C=O)NC(=O)[C@H](CC(C)C)NC(=O)[C@H](CC(C)C)NC(C)=O` (Ac-Leu-Leu-[Nle]-aldehyde), the “Growth Rate” value in data set [1] (replicate number 1) is given as 0.53; in data set [1] (replicate number 2), 1; in data set [2] (replicate number 1), -0.02; in data set [2] (replicate number 2), 0.18; in data set [3] (replicate number 1) it was -0.08; in data set [3] (replicate number 2), 0.62.
Regarding `CC(=O)N[C@H](C(=O)N[C@@H](CC(=O)O)C(=O)N[C@H](C(=O)N[C@@H](C)C(=O)N[C@H](C=O)CC(=O)O)C(C)C)C(C)C` (Ac-VDVAD-aldehyde), the “Growth Rate” value in data set [1] (replicate number 1) was found to be 0.52; in data set [1] (replicate number 2), 1; in data set [2] (replicate number 1) it was 0.65; in data set [2] (replicate number 2), 1; in data set [3] (replicate number 1), 0.65; in data set [3] (replicate number 2), 0.76.
Regarding `CC[C@H](C)[C@H](NC(=O)[C@H](CCC(=O)O)NC(=O)[C@@H](NC(C)=O)C(C)C)C(=O)N[C@H](C=O)CC(=O)O.O=C(O)C(F)(F)F` (Ac-VEID-aldehyde), the “Growth Rate” value was 1 in data set [1] (replicate number 1); 0.22 in data set [1] (replicate number 2); 0.64 in data set [2] (replicate number 1); 0.97 in data set [2] (replicate number 2); 1 in data set [3] (replicate number 1).
In the case of `CC(C)[C@H](NC(=O)[C@H](CCC(=O)O)NC(=O)[C@H](C)NC(=O)OC(C)(C)C)C(=O)N[C@H](C=O)CC(=O)O.O=C(O)C(F)(F)F` (Boc-AEVD-aldehyde), the “Growth Rate” value was 0.24 in data set [1] (replicate number 1); 1 in data set [1] (replicate number 2); 0.66 in data set [2] (replicate number 1); 0.93 in data set [2] (replicate number 2); 1 in data set [3] (replicate number 1).
Consider `COC(=O)CC[C@H](NC(=O)[C@H](C)NC(=O)OCc1ccccc1)C(=O)N[C@H](C(=O)N[C@@H](CC(=O)OC)C(=O)CF)C(C)C` (Cbz-AE(OMe)VD(OMe)-CH2F), for which the “Growth Rate” value is 0.35 in data set [1] (replicate number 1); 1 in data set [1] (replicate number 2); 0.7 in data set [2] (replicate number 1); 0.98 in data set [2] (replicate number 2); 1 in data set [3] (replicate number 1).
With `O=CC1CCCN1C(=O)C1CCCN1C(=O)OCc1ccccc1` (stereo not drawn) (Cbz-Pro-Pro-aldehyde; configuration not given here), the “Growth Rate” value is recorded as 0.22 in data set [1] (replicate number 1); 0.25 in data set [1] (replicate number 2); 0.88 in data set [2] (replicate number 1); 0.71 in data set [2] (replicate number 2); 0.37 in data set [3] (replicate number 1); 0.84 in data set [3] (replicate number 2).
In the case of `COC(=O)CC[C@H](NC(=O)[C@H](Cc1c[nH]c2ccccc12)NC(=O)OCc1ccccc1)C(=O)N[C@@H](Cc1cnc[nH]1)C(=O)N[C@@H](CC(=O)OC)C(=O)CF` (Cbz-WE(OMe)HD(OMe)-CH2F), the “Growth Rate” value in data set [1] (replicate number 1) was 0.4; in data set [1] (replicate number 2), 1; in data set [2] (replicate number 1), 0.94; in data set [2] (replicate number 2), 0.95; in data set [3] (replicate number 1), 0.82; in data set [3] (replicate number 2), 0.99.
Take `CCCC(NC(=O)C(CC(C)C)NC(=O)OCc1ccccc1)C(=O)C(=O)NCc1ccccn1` (racemic): the “Growth Rate” value is recorded as 0.96 in data set [1] (replicate number 1); 1 in data set [1] (replicate number 2); 0.78 in data set [2] (replicate number 1); 1 in data set [2] (replicate number 2); 1 in data set [3] (replicate number 1); 0.89 in data set [3] (replicate number 2).
Regarding `C#CCNC(=O)[C@H](CO)NC(=O)[C@H](CCCCN(CC)CC)NC(=O)[C@H](NC(=O)[C@@H](NC(=O)c1ccc(Oc2ccccc2)cc1)C1CCCC1)[C@@H](C)CC` ({Benzoyl(4-OPh)}-[Gly(cPent)][d(aIle)][Lys(Et2)]S-{NH(propargyl)}), the “Growth Rate” value is listed as 1 in data set [1] (replicate number 1); 0.24 in data set [1] (replicate number 2); 0.58 in data set [2] (replicate number 1); 1 in data set [2] (replicate number 2); 1 in data set [3] (replicate number 1).
With `CCN(CC)CCCC[C@H](NC(=O)[C@H](CC(C)C)NC(=O)[C@H](C)NC(=O)[C@H](Cc1ccccc1)NC(=O)c1ccc(C(C)(C)C)cc1)C(=O)N[C@@H](CO)C(=O)OC` ({Benzoyl(4-tBu)}-FAL[Lys(Et2)]S-OMe), the “Growth Rate” value in data set [1] (replicate number 1) is given as 0.92; in data set [1] (replicate number 2), 0.71; in data set [2] (replicate number 1) it was 0.81; in data set [2] (replicate number 2), 0.89; in data set [3] (replicate number 1), 1.
As for `CCCN1CCN(c2ccc(C(=O)NC3(C(=O)NCC#N)CCCCC3)cc2)CC1` [BALICATIB], the “Growth Rate” value in data set [1] (replicate number 1) turned out to be 1; in data set [2] (replicate number 1), 0.79; in data set [2] (replicate number 2), 0.95; in data set [3] (replicate number 1), 1; in data set [3] (replicate number 2), 0.86.
In the case of `CCS(=O)(=O)N1CC(CC#N)(n2cc(-c3ncnc4[nH]ccc34)cn2)C1` [BARICITINIB], the “Growth Rate” value in data set [1] (replicate number 1) stood at 0.11; in data set [1] (replicate number 2), 0.42; in data set [2] (replicate number 1), 0.96; in data set [2] (replicate number 2), 1; in data set [3] (replicate number 1), 1; in data set [3] (replicate number 2), 0.77.
For `CC/C(=C(/c1ccc(/C=C/C(=O)O)cc1)c1ccc2[nH]ncc2c1)c1ccc(F)cc1Cl` [BRILANESTRANT], the “Growth Rate” value is listed as 1 in data set [1] (replicate number 1); 0.82 in data set [2] (replicate number 1); 0.87 in data set [2] (replicate number 2); 1 in data set [3] (replicate number 1); 0.77 in data set [3] (replicate number 2).
Turning to `CCCC1O[C@@H]2C[C@H]3[C@@H]4CCC5=CC(=O)C=C[C@]5(C)[C@H]4[C@@H](O)C[C@]3(C)[C@]2(C(=O)CO)O1` (stereo partly specified) [BUDESONIDE], the “Growth Rate” value is given as 0.7 in data set [1] (replicate number 1); 1 in data set [1] (replicate number 2); 0.73 in data set [2] (replicate number 1); 0.82 in data set [2] (replicate number 2); 1 in data set [3] (replicate number 1); 0.58 in data set [3] (replicate number 2).
Regarding `O=C(CCCCCCNC(=O)c1cnc(N(c2ccccc2)c2ccccc2Cl)nc1)NO` [CITARINOSTAT], the “Growth Rate” value in data set [1] (replicate number 1) is recorded as 1; in data set [1] (replicate number 2), 0.2; in data set [2] (replicate number 1) it was 0.9; in data set [2] (replicate number 2) it was 1; in data set [3] (replicate number 1), -0.08; in data set [3] (replicate number 2) it was 0.29.
As to `COc1cc(C)[nH]c(=O)c1CNC(=O)c1c(C)n([C@H](C)C2CCN(CC(F)(F)F)CC2)c2ccccc12` [CPI-1205], the “Growth Rate” value in data set [1] (replicate number 1) is reported as 0.99; in data set [1] (replicate number 2) it was 0.13; in data set [2] (replicate number 1), 0.61; in data set [2] (replicate number 2), 0.95; in data set [3] (replicate number 1), 0.59; in data set [3] (replicate number 2), 0.83.
For `CC(=O)O[C@]1(C(C)=O)CC[C@H]2[C@@H]3C=C(Cl)C4=CC(=O)[C@@H]5C[C@@H]5[C@]4(C)[C@H]3CC[C@@]21C` [CYPROTERONE ACETATE], the “Growth Rate” value in data set [1] (replicate number 1) is given as 0.21; in data set [1] (replicate number 2) it was 0.15; in data set [2] (replicate number 1), 0.61; in data set [2] (replicate number 2), 0.76; in data set [3] (replicate number 1), 1; in data set [3] (replicate number 2) it was 0.72.
`Cc1nc(Nc2ncc(C(=O)Nc3c(C)cccc3Cl)s2)cc(N2CCN(CCO)CC2)n1` [DASATINIB ANHYDROUS]: the “Growth Rate” value is recorded as 1 in data set [1] (replicate number 1); 0.23 in data set [1] (replicate number 2); -0.16 in data set [2] (replicate number 1); 0.04 in data set [2] (replicate number 2); -0.47 in data set [3] (replicate number 1); -0.3 in data set [3] (replicate number 2).
`CC/C(=C(/CC)c1ccc(O)cc1)c1ccc(O)cc1` [DIETHYLSTILBESTROL]: the “Growth Rate” value came to 0.45 in data set [1] (replicate number 1); 0.22 in data set [1] (replicate number 2); 0.72 in data set [2] (replicate number 1); 0.87 in data set [2] (replicate number 2); 1 in data set [3] (replicate number 1); 0.74 in data set [3] (replicate number 2).
